Experimental data as given in patent publication US20240418701A1, “SINGLE MOLECULE IDEN[…] A REACTIVE HETERO-NANOPORE” (priority 2021, published 2024).

How the values were obtained:
[1] = target: T1, MspA-PBA (boronic acid appended hetero-octameric MspA) (Mycolicibacterium smegmatis, UniProt A0QR29, D117C/D118N/D120N/D145R/D161R/E166K); experiment: Single channel recording of alditol binding to MspA-PBA nanopore (standards and zero-sugar drinks); parameters: species or system Mycobacterium smegmatis; details: N=3; for ratio (mean current percentage blockage) / std (standard deviation of the blocking level): alditol 4 mM (glycerol 8 mM) in cis
T1 construct: H6 (hexa-histidine) (C); 3-(maleimide) phenylboronic acid (MPBA) adduct on the thiol of Cys90; made in house; host or cells: E. coli BL21 (DE3) pLysS, co-expression from pETDuet-1
Protocol: FIG. 88: Definition of event parameters. (a) A representative electrophysiology trace containing nanopore events. Xylitol was treated as the model analyte. I0 is the open pore current and Ib is the residual current caused by alditol blockade. ratio is derived from (I0−Ib)/I0, which is defined as the percentage blockage. τoff represents the dwell time of an event. τon represents the inter-event interval. std is the standard deviation value of the blockage level. (b-c) The histogram plot of ratio (b) and std (c) acquired from a continually recorded trace. The histograms were Gaussian fitted and the peaks of the fitting results respectively represent the mean value of ratio and the mean std. (d-e) The histogram plots of τoff (d) and τon (e) acquired from a continually recorded trace. The histogram plots were respectively fit to a single exponential curve, according to the equation y=a*exp (−x/τ), from which the mean event dwell time (τoff) (d) and the mean inter-event interval (τon) (e) were respectively derived. If not otherwise stated, all results in this manuscript were described by event parameters defined above.
All subsequent nanopore measurements were carried out with a 1.5 M KCl buffer (1.5 M KCl, 10 mM 3-(N-Morpholino) propanesulfonic acid (MOPS), pH 7.0) and a +100 m V continually applied potential (Method 1 in Example 3). 13 types of alditols, which were derived from the reduction of the carbonyl group of C3-C6 monoaldoses were treated as model polyols (FIGS. 77b and 83). The PBA of MspA-PBA can complex with a polyol, forming a cyclic ester at the pore constriction and resulting in the corresponding nanopore event being reported. All alditols were added to the cis side of the pore and the final concentration of alditols was set at 4 mM with the exception of glycerol, which was set at 8 mM instead. […] In addition, single molecule sensing of glycerol and D-Sorbitol by MspA-PBA are as shown in FIGS. 104 and 105, respectively.
To describe the sensing events quantitatively, event parameters such as the open-pore current (I0), the current blockade (Ib), the percentage blockage (ratio), the event dwell time (τoff), the inter-event intervals (τon) and the standard deviation value of the blockage level (std) were defined as described in FIG. 88. The percentage blockage, also referred to for simplicity as ratio, is defined as (I0−Ib)/I0.
Quantitatively, the reciprocal of the mean inter-event interval (1/τon, N=3) is linearly correlated with the alditol concentration, consistent with a bimolecular model. The mean event dwell time τoff (N=3) however is independent of the alditol concentration, and this is consistent with a unimolecular dissociation mechanism (FIGS. 89e-92e, Table 18). […] The binding constant for borate cyclic ester formation for alditols increases as the number of hydroxyl groups in the alditol increases (FIG. 77c and Table 18), consistent with conclusions drawn previously from the corresponding NMR measurements.^52 Nanopore measurements were also performed with different applied voltages. […] This is expected because all alditols tested in this paper are electrically neutral and the formation of a borate ester is independent of the local electric field.
All nanopore measurements were performed as described previously.^1,2 Briefly, the measurement device has two custom chambers separated by a thick Teflon film containing a drilled (˜100 μm) aperture. Before the measurement, the aperture was first treated with 0.5% (v/v) hexadecane in pentane and set for pentane evaporation. Electrolyte buffer (500 μL) was added to the electrically grounded chamber (cis chamber) and the opposing chamber (trans chamber). All nanopore measurements in this paper were performed with a 1.5 M KCl buffer (1.5 M KCl, 10 mM MOPS, pH 7.0). Two custom-made Ag/AgCl electrodes were placed in both chambers in contact with the buffers and the patch-clamp amplifier to form a closed circuit. […]

[2] = target: T2, Octameric M2 MspA (Mycolicibacterium smegmatis, UniProt A0QR29, D117N/D118N/D120N/D145R/D161R/E166K); experiment: Alditol sensing using M2 MspA nanopore (control without PBA); type: binding, Mycobacterium smegmatis; details: alditol 4 mM in cis, +100 mV
T2 construct: made in house; host or cells: E. coli BL21 (DE3)
Protocol: FIG. 87: Alditol sensing using M2 MspA nanopore. Glycerol, erythritol, xylitol and sorbitol were used as the representative alditols with different number of hydroxyl groups. All measurements were carried out as described in Methods 1 in Example 3. Octameric M2 MspA was applied as the nanopore sensor. A transmembrane potential of +100 m V was continually applied. Each alditol was added to cis with a final concentration of 4 mM.
The octameric M2 MspA was used as a control in FIG. 87. It was expressed with E. coli BL21 (DE3) and purified by nickel affinity chromatography as reported previously.^1

[3] = target: T3, MspA-PBA (phenylboronic acid modified hetero-octameric (N90C)1(M2)7 MspA) (Mycolicibacterium smegmatis, UniProt A0QR29, D117C/D118N/D120N/D145R/D161R/E166K); type: binding, Mycobacterium smegmatis; details: +200 mV
T3 construct: H6 (hexa-histidine) (C); 3-(maleimide) phenylboronic acid (MPBA) adduct on the thiol of Cys90; made in house; host or cells: E. coli BL21 (DE3) pLysS, co-expression from pETDuet-1
Protocol: FIG. 46: Definition of event parameters. […] The measurement was carried out as described in Methods in Example 2. The chambers were filled with a 1.5 M KCl buffer (1.5 M KCl, 10 mM MOPS, pH 7.0). A transmembrane potential of +200 mV was continually applied. AMP was added to cis with a final concentration of 300 μM. The open pore current (Ip), the residual current (Ib), the dwell time (τoff) and the inter-event duration (τon) are defined as marked on the trace. The percentage blockage (% Ib) is defined as (Ip−Ib)/Ip. The noise amplitude (S.D.) is defined as the standard deviation of the blockage level.
NMPs consist of a ribose, a phosphate group and a nucleobase, serving as monomeric units of RNA. […] Experimentally, single channel recording was performed using MspA-PBA in a 1.5 M KCl buffer (1.5 M KCl, 10 mM MOPS, pH 7.0) (Methods in Example 2). A transmembrane potential of +200 mV was continually applied. Four canonical NMPs, adenine mononucleotide (AMP), guanine mononucleotide (GMP), cytosine mononucleotide (CMP) and uracil mononucleotide (UMP) were tested as analytes (FIG. 33d). Either type of NMP was added to cis at a final concentration of 300 μM. Subsequently, successive resistive pulses caused by either type of NMP were immediately observed (FIG. 33d). However, no events were observed when M2 MspA was tested, confirming that the PBA located at the pore constriction is critical in the generation of NMP sensing events (FIG. 44). At this condition, ˜1800 events/h were obtained from each pore. The pore could normally withstand a few hours of continuous measurement. Deoxyribonucleoside monophosphate (dNMP) fails to report any event when sensed by MspA-PBA (FIG. 45). This is expected because dNMPs have no cis-diol structure and can't form the boronate ester which is necessary for sensing. The molecular mechanism of sensing which results from reversible covalent bond formation between an NMP and the PBA at the pore constriction is thus confirmed.
To describe NMP sensing events quantitatively, the event dwell time (τoff), the inter-event interval (τon), the percentage blockage (% Ib=(Ip−Ib)/Ip) and the noise amplitude (S.D.) were derived as described in FIG. 46. Generally, the histograms of τoff and τon show an exponential distribution, and could be fitted to derive the mean time constants τoff or τon, respectively. The histograms of % Ib and S.D. show a Gaussian distribution, which could be fitted to derive the mean percentage blockage % Ib and S.D., respectively. During NMP sensing, by varying the NMP concentrations in cis, the reciprocal of dwell time (1/τoff) remains constant, consistent with a unimolecular dissociation mechanism. Whereas the reciprocal of the inter-event interval (1/τon) linearly correlates with the NMP concentration in cis (Tables 8-11, FIG. 47-50), consistent with a bimolecular model. The dependence of the applied voltage during NMP sensing was investigated using AMP as a representative analyte. […] This is expected because in a pH 7.0 buffer, the phosphate group of NMP is negatively charged and the electrophoretic force applied on the NMP analyte can strongly regulate the rate of event appearance and the event dwell time.

[4] = voltage series: +60 mV, glycerol 12 mM, other alditols 8 mM
[5] = voltage series: +80 mV, glycerol 12 mM, other alditols 8 mM
[6] = voltage series: +100 mV, glycerol 12 mM, other alditols 8 mM
[7] = voltage series: +120 mV, glycerol 12 mM, other alditols 8 mM

T1 sequence (A0QR29 other isoform, or with tags, fused parts or gaps D117N/D118N/D120N/D145R/D161R/E166K): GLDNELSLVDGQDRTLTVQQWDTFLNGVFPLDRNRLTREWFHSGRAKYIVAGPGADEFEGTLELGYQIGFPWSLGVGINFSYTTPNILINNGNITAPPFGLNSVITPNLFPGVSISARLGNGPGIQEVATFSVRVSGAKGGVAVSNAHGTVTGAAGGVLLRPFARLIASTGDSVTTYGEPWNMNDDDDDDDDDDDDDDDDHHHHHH
T1 sequence (A0QR29 other isoform, or with tags, fused parts or gaps D117C/D118N/D120N/D145R/D161R/E166K): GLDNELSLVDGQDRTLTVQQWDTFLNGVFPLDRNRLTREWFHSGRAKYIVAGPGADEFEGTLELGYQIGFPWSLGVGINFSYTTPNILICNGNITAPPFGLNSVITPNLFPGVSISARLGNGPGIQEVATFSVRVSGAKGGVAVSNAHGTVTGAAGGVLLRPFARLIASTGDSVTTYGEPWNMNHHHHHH
T2 sequence (A0QR29 28-211 D117N/D118N/D120N/D145R/D161R/E166K): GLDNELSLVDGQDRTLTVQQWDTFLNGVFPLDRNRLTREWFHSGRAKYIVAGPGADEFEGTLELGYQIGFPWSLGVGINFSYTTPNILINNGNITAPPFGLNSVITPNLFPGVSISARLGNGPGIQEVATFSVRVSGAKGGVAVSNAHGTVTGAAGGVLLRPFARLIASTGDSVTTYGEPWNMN

## OC[C@@H](O)[C@@H](O)[C@H](O)[C@@H](O)CO [D-sorbitol]
[1]; +100 mV
  ratio (mean current percentage blockage): 30.43 ± 0.06%
  std (standard deviation of the blocking level): 5.30 ± 0.17 pA
[1]; alditol 2 mM in cis, +100 mV
  1/τon: 0.40 ± 0.04 s⁻¹
  τoff: 2.1 ± 0.3 s
[1]; alditol 4 mM in cis, +100 mV
  1/τon: 0.81 ± 0.09 s⁻¹
  τoff: 2.11 ± 0.12 s
[1]; alditol 6 mM in cis, +100 mV
  1/τon: 1.2 ± 0.2 s⁻¹
  τoff: 2.2 ± 0.2 s
[1]; alditol 8 mM in cis, +100 mV
  1/τon: 1.7 ± 0.1 s⁻¹
  τoff: 2.2 ± 0.3 s
[1]; [4]
  1/τon: 1.67 ± 0.03 s⁻¹
[1]; [5]
  1/τon: 1.60 ± 0.06 s⁻¹
[1]; [6]
  1/τon: 1.70 ± 0.06 s⁻¹
[1]; [7]
  1/τon: 1.70 ± 0.05 s⁻¹
[2]
  binding events with M2 MspA: No binding events were observed

## OC[C@@H](O)[C@H](O)[C@@H](O)[C@@H](O)CO [L-sorbitol]
[1]; +100 mV
  ratio (mean current percentage blockage): 30.77 ± 0.06%
  std (standard deviation of the blocking level): 5.97 ± 0.04 pA

## OC[C@@H](O)[C@@H](O)[C@@H](O)CO [adonitol]
[1]; +100 mV
  ratio (mean current percentage blockage): 24.13 ± 0.15%
  std (standard deviation of the blocking level): 3.83 ± 0.07 pA

## OC[C@@H](O)[C@@H](O)[C@@H](O)[C@@H](O)CO [allitol]
[1]; +100 mV
  ratio (mean current percentage blockage): 27.57 ± 0.06%
  std (standard deviation of the blocking level): 4.64 ± 0.03 pA

## OC[C@@H](O)C(O)[C@H](O)CO [arabitol]
[1]; +100 mV
  ratio (mean current percentage blockage): 25.13 ± 0.15%
  std (standard deviation of the blocking level): 4.71 ± 0.03 pA

## Nc1ncnc2c1ncn2[C@H]1C[C@H](O)[C@@H](COP(=O)(O)O)O1 [dAMP, 2′-deoxyadenosine-5′-phosphate]
[3]; analyte 1 mM in cis
  sensing events with MspA-PBA: no dAMP sensing events were observed

## OC[C@@H](O)[C@H](O)[C@H](O)[C@@H](O)CO [dulcitol]
[1]; +100 mV
  ratio (mean current percentage blockage): 28.9 ± 0.3%
  std (standard deviation of the blocking level): 5.22 ± 0.06 pA

## OC[C@@H](O)[C@@H](O)CO [erythritol]
[1]; +100 mV
  ratio (mean current percentage blockage): 22.00±0.17%
  std (standard deviation of the blocking level): 3.24±0.18 pA
[1]; alditol 2 mM in cis, +100 mV
  1/τon: 0.42 ± 0.05 s⁻¹
  τoff: 0.0424 ± 0.0005 s
[1]; alditol 4 mM in cis, +100 mV
  1/τon: 0.80 ± 0.05 s⁻¹
  τoff: 0.0434 ± 0.0032 s
[1]; alditol 6 mM in cis, +100 mV
  1/τon: 1.16 ± 0.03 s⁻¹
  τoff: 0.0423 ± 0.0023 s
[1]; alditol 8 mM in cis, +100 mV
  1/τon: 1.59 ± 0.09 s⁻¹
  τoff: 0.0442 ± 0.0015 s
[1]; [4]
  1/τon: 1.62 ± 0.10 s⁻¹
[1]; [5]
  1/τon: 1.65 ± 0.11 s⁻¹
[1]; [6]
  1/τon: 1.64 ± 0.10 s⁻¹
[1]; [7]
  1/τon: 1.65 ± 0.06 s⁻¹
[2]
  binding events with M2 MspA: No binding events were observed

## OC[C@@H](O)[C@H](O)[C@@H](O)[C@H](O)CO [iditol]
[1]; +100 mV
  ratio (mean current percentage blockage): 29.3 ± 0.2%
  std (standard deviation of the blocking level): 6.64 ± 0.03 pA

## OC[C@@H](O)[C@@H](O)[C@H](O)[C@H](O)CO [mannitol]
[1]; +100 mV
  ratio (mean current percentage blockage): 29.2 ± 0.3%
  std (standard deviation of the blocking level): 3.09 ± 0.17 pA

## OC[C@@H](O)[C@H](O)[C@H](O)[C@H](O)CO [talitol]
[1]; +100 mV
  ratio (mean current percentage blockage): 27.3 ± 0.2%
  std (standard deviation of the blocking level): 6.33 ± 0.06 pA

## OC[C@@H](O)[C@H](O)CO [threitol]
[1]; +100 mV
  ratio (mean current percentage blockage): 20.3 ± 0.2%
  std (standard deviation of the blocking level): 5.84 ± 0.18 pA

## O=c1[nH]cc([C@@H]2O[C@H](COP(=O)(O)O)[C@@H](O)[C@H]2O)c(=O)[nH]1 [Ψ, Pseudouridine-5′-monophosphate]
[3]; NMP 300 μM in cis, N=3
  % Ib (percentage blockage): 10.2 ± 0.2%
  S.D. (noise amplitude of blockage level): 2.40 ± 0.05 pA
  τoff (mean dwell time): 36.9 ± 3.4 ms
  τon (mean inter-event interval): 2047.7 ± 283.8 ms
[3]; sole NMP 300 μM in cis, three independent measurements
  Calibration coefficient δ (NMP binding events per unit concentration per min): 0.099 ± 0.014 µM⁻¹ min⁻¹
